What was measured:
[1] = Permeability of the blood-brain barrier by PAMPA (porcine brain lipid); settings: for Prediction of crossing the BBB: based on Ep correlated with 10 control drugs; for Papp at 2.5 h: pig, pH 7.4
[2] = biological target: recombinant human enzyme TTBK1 (1-1321) (Homo sapiens (Human), UniProt Q5TCY1); assay: Enzymatic inhibition of TTBK1 (33P-ATP radiometric kinase assay); type: biochemical; settings: recombinant human TTBK1 (1-1321), 0.005 mM ATP, 30 minutes at room temperature
Description: (§1) The final reaction mixture contains the peptide at a concentration of 0.3 mM, 10 mM magnesium acetate and 0.005 mM [33P-γ-ATP](50-1000 cpm/pmol). The reaction mixture is incubated for 30 minutes at room temperature and the reaction is stopped after the addition of 5 μl of orthophosphoric acid.

[3] = biological target: recombinant human enzyme TTBK2(1-450) (Homo sapiens (Human), UniProt Q6IQ55); assay: Enzymatic inhibition of TTBK2 (33P-ATP radiometric kinase assay); type: biochemical; settings: recombinant human TTBK2(1-450), 0.005 mM ATP, 30 minutes at room temperature
Description: as §1

Chain of recombinant human enzyme TTBK2(1-450) (Q6IQ55 1-450): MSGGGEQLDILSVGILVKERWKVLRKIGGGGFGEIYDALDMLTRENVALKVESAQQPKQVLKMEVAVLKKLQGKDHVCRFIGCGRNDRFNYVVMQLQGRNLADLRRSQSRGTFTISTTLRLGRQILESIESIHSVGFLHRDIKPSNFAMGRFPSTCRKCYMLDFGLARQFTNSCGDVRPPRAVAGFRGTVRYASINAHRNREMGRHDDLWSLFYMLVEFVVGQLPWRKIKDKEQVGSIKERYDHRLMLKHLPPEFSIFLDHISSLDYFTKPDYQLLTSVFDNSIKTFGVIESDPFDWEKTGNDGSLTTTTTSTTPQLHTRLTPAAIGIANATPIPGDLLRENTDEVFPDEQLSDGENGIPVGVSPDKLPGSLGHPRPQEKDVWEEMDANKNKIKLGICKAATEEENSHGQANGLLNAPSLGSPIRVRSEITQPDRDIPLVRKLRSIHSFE
Chain of recombinant human enzyme TTBK1 (1-1321) (Q5TCY1 whole entry): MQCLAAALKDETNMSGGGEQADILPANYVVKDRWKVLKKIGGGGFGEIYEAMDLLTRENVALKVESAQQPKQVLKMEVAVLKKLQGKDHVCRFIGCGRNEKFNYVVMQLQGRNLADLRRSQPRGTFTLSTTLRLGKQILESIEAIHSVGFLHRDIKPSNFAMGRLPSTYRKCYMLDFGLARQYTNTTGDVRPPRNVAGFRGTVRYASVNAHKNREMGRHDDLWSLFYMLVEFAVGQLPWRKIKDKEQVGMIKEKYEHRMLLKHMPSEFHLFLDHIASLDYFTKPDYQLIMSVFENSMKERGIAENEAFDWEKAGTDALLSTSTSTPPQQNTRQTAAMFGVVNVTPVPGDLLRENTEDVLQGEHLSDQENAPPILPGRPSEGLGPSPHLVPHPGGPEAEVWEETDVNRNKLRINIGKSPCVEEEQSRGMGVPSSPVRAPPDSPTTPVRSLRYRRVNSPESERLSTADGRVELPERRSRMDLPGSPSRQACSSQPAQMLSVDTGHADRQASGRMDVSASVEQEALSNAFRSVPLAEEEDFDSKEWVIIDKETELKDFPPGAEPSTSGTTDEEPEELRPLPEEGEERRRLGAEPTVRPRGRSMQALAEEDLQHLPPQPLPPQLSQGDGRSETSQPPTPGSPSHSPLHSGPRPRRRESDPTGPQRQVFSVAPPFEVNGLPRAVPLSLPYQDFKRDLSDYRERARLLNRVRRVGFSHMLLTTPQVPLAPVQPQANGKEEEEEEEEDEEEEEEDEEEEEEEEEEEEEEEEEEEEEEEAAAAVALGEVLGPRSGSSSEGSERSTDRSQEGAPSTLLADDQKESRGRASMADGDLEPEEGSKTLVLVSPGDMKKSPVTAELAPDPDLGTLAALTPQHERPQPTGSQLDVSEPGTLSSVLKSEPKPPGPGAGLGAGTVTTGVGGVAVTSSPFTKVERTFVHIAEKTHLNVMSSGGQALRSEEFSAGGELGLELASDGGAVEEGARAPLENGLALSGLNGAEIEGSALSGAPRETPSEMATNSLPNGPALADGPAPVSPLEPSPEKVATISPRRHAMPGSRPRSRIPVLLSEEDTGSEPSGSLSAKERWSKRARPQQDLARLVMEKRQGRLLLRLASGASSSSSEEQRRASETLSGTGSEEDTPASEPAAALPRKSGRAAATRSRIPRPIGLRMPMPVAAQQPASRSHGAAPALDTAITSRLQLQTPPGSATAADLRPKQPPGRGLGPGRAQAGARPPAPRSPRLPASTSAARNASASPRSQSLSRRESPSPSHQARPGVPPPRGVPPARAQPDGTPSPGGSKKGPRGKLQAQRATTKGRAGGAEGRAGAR

Structure (SMILES)	Prediction of crossing the BBB [1]	Papp at 2.5 h [1] [×10⁻⁶ cm/s]	IC50 [2] [µM]	IC50 [3] [µM]
c1ccc(Oc2ccc(Nc3ncnc4[nH]ccc34)cc2)cc1 [Compound 1, N-(4-phenoxyphenyl)-7H-pyrrolo[2,3-d]pyrimidin-4-amine]	CNS+	23.2 ± 1.4	–	–
Clc1ccc(Oc2ccc(Nc3ncnc4[nH]ccc34)cc2)cc1 [Compound 2, N-[4-(4-chlorophenoxy)phenyl]-7H-pyrrolo[2,3-d]pyrimidin-4-amine]	CNS+	11.5 ± 1	–	–
Fc1ccc(Oc2ccc(Nc3ncnc4[nH]ccc34)cc2)cc1 [Compound 3, N-[4-(4-fluorophenoxy)phenyl]-7H-pyrrolo[2,3-d]pyrimidin-4-amine]	CNS+	15.6 ± 1.3	0.77 ± 0.14	3.02 ± 0.82
FC(F)(F)c1ccc(Oc2ccc(Nc3ncnc4[nH]ccc34)cc2)cc1 [Compound 6, N-[4-(4-trifluoromethylphenoxy)phenyl]-7H-pyrrolo[2,3-d]pyrimidin-4-amine]	CNS+	7.6 ± 1.4	–	–
Brc1ccc(Oc2ccc(Nc3ncnc4[nH]ccc34)cc2)cc1 [Compound 7, N-[4-(4-bromophenoxy)phenyl]-7H-pyrrolo[2,3-d]pyrimidin-4-amine]	CNS+	11 ± 1.2	–	–
O=[N+]([O-])c1ccc(Oc2ccc(Nc3ncnc4[nH]ccc34)cc2)cc1 [Compound 8, N-[4-(4-nitrophenoxy)phenyl]-7H-pyrrolo[2,3-d]pyrimidin-4-amine]	CNS+	14.3 ± 1.1	–	–
Cc1cccc(Oc2ccc(Nc3ncnc4[nH]ccc34)cc2)c1 [Compound 11, N-[4-(3-methylphenoxy)phenyl]-7H-pyrrolo[2,3-d]pyrimidin-4-amine]	CNS+	14 ± 0.4	–	–
Clc1ccc(Oc2ccc(Nc3ncnc4[nH]ccc34)cc2)c(Cl)c1 [Compound 16, N-[4-(2.4-chlorophenoxy)phenyl]-7H-pyrrolo[2,3-d]pyrimidin-4-amine]	CNS+	17.3 ± 0.1	2.3 ± 0.54	5.72 ± 2.65
Nc1nc(Nc2ccc(Oc3cccc(C(F)(F)F)c3)cc2)c2cc[nH]c2n1 [Compound 19, N4-(4-(3-(trifluoromethyl)phenoxy)phenyl]-7H-pyrrolo[2,3-d]pyrimidine-2,4-diamine]	CNS+	7.7 ± 0.6	1.32 ± 0.04	3.9 ± 0.48
Nc1nc(Nc2ccc(Oc3cccc(Cl)c3)cc2)c2cc[nH]c2n1 [Compound 21, N4-(4-(3-chlorophenoxy)phenyl)-7H-pyrrolo[2,3-d]pyrimidine-2,4-diamine]	CNS+	14.1 ± 0.4	0.37 ± 0.12	3.05 ± 0.07
Nc1ccc(Sc2ccc(Nc3ncnc4[nH]ccc34)cc2)cc1 [Compound 23, N-[4-((4-aminophenyl)thio)phenyl]-7H-pyrrolo[2,3-d]pyrimidin-4-amine]	CNS+	4.7 ± 0.5	–	–

Now from value to compound, other results behind:

Prediction of crossing the BBB [1]	Papp at 2.5 h [1] [×10⁻⁶ cm/s]	Structure (SMILES)	IC50 [2] [µM]	IC50 [3] [µM]
CNS+	11.8 ± 0.3	COc1ccc(Oc2ccc(Nc3ncnc4[nH]ccc34)cc2)cc1 [Compound 5, N-[4-(4-methoxyphenoxy)phenyl]-7H-pyrrolo[2,3-d]pyrimidin-4-amine]	–	–
CNS+	18.7 ± 1.4	Cc1ccc(Oc2ccc(Nc3ncnc4[nH]ccc34)cc2)cc1 [Compound 10, N-[4-(4-methylphenoxy)phenyl]-7H-pyrrolo[2,3-d]pyrimidin-4-amine]	–	–
CNS+	8.4 ± 1.6	Clc1cccc(Oc2ccc(Nc3ncnc4[nH]ccc34)cc2)c1 [Compound 12, N-[4-(3-chlorophenoxy)phenyl]-7H-pyrrolo[2,3-d]pyrimidin-4-amine]	–	> 100
CNS+	6.8 ± 1.4	FC(F)(F)c1cccc(Oc2ccc(Nc3ncnc4[nH]ccc34)cc2)c1 [Compound 13, N-[4-(3-trifluoromethylphenoxy)phenyl]-7H-pyrrolo[2,3-d]pyrimidin-4-amine]	–	–
CNS+	9.7 ± 1	Clc1ccccc1Oc1ccc(Nc2ncnc3[nH]ccc23)cc1 [Compound 14, N-[4-(2-chlorophenoxy)phenyl]-7H-pyrrolo[2,3-d]pyrimidin-4-amine]	–	–
CNS+	10.5 ± 0.7	COc1cccc(Oc2ccc(Nc3ncnc4[nH]ccc34)cc2)c1 [Compound 17, N-[4-(3-methoxyphenoxy)phenyl]-7H-pyrrolo[2,3-d]pyrimidin-4-amine]	–	–
CNS+	7.5 ± 0.1	Nc1nc(Nc2ccc(Oc3ccc(C(F)(F)F)cc3)cc2)c2cc[nH]c2n1 [Compound 18, N4-(4-(4-(trifluoromethyl)phenoxy)phenyl]-7H-pyrrolo[2,3-d]pyrimidine-2,4-diamine]	0.58 ± 0.08	4.49 ± 1.16
CNS+	9.7 ± 1	Nc1nc(Nc2ccc(Oc3ccc(Cl)cc3)cc2)c2cc[nH]c2n1 [Compound 20, N4-(4-(4-chlorophenoxy)phenyl]-7H-pyrrolo[2,3-d]pyrimidine-2,4-diamine]	–	–
CNS+	18.3 ± 1.2	c1ccc(COc2ccc(Nc3ncnc4[nH]ccc34)cc2)cc1 [Compound 24, N-[4-(benzyloxy)phenyl]-7H-pyrrolo[2,3-d]pyrimidin-4-amine]	–	–
CNS+	6.9 ± 0.6	O=C(c1ccccc1)c1ccc(Nc2ncnc3[nH]ccc23)cc1 [Compound 25, (4-((7H-pyrrolo[2,3-d]pyrimidin-4-yl)amino)phenyl](phenyl)methanone]	–	–
CNS+	9.4 ± 0.4	O=C(c1ccc(F)cc1)c1ccc(Nc2ncnc3[nH]ccc23)cc1 [Compound 26, (4-((7H-pyrrolo[2,3-d]pyrimidin-4-yl)amino)phenyl](4-fluorophenyl)methanone]	–	–
